# In patent US20100184799A1, “OXADIAZOLE BETA CARBOLINE DERIVATIVES AS ANTIDIABETIC COMPOUNDS” (priority 2009, published 2010):
# Molecular target: T1, SSTR3 (Homo sapiens, UniProt P32745)
# Experiment: SSTR3 receptor-ligand binding assay, (3-125I-Tyr11)-SRIF-14 radioligand, CHO-K1 cell membranes
# Design: expressed in transfected cells; membranes used
# Conditions: cloned human SSTR3, CHO-K1 membranes, 0.1 nM radioligand
# Method: The receptor-ligand binding assays of all 5 subtype of SSTRs were performed with membranes isolated from Chinese hamster ovary (CHO)—K1 cells stably expressing the cloned human somatostatin receptors in 96-well format as previous reported.
# The stable cell lines for SSTR1-SSTR5 were developed by stably transfecting with DNA for all five SSTRs using Lipofectamine. […] The assay buffer consisted of 50 mM TrisHCl (pH 7.8) with 1 mM EGTA, 5 mM MgCl2, leupeptin (10 μg/mL), pepstatin (10 μg/mL), bacitracin (200 μg/mL), and aprotinin (0.5 μg/mL). CHO—K1 cell membranes, radiolabeled somatostatin, and unlabeled test compounds were resuspended or diluted in this assay buffer. Unlabeled test compounds were examined over a range of concentrations from 0.01 nM to 10,000 nM.
# T1 sequence (P32745 whole entry): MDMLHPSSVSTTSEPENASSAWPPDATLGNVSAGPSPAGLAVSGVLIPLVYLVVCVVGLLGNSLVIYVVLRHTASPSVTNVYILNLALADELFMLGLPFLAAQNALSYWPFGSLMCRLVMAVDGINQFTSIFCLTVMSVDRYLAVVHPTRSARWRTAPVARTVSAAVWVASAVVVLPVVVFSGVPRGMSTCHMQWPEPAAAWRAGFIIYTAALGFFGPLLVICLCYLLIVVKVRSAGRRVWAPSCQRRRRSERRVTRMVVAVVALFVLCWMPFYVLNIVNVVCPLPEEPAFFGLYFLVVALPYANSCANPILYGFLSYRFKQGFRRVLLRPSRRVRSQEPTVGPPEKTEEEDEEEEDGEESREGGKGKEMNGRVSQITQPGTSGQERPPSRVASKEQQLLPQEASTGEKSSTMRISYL
row,Compound,Ki [nM]
1,Oc1nnc(C2(c3ccccc3)N[C@@H](c3nc(-c4ccc(F)cc4)c[nH]3)Cc3c2[nH]c2ccccc32)o1 (mixture of isomers) [Example 10],3.3
2,N#Cc1ccc(C2(c3nnc(O)o3)N[C@@H](c3nc(-c4ccc(F)cc4)c[nH]3)Cc3c2[nH]c2ccccc32)cc1 (mixture of isomers) [Example 13],9.2
3,CCn1cc(C2(c3nn(C)c(=O)o3)N[C@@H](c3nc(-c4ccc(F)cc4)c[nH]3)Cc3c2[nH]c2ccccc32)cn1 (mixture of isomers) [Example 36],1.1
4,"Cn1nc(C2(c3ccccc3)N[C@@H](c3nc(-c4ccc(F)cc4)c[nH]3)Cc3c2[nH]c2ccccc32)oc1=O (single isomer, unassigned) [Example 2]",31.4
5,"CCn1nc(C2(c3noc(C)n3)N[C@@H](c3nc(-c4ccc(F)cn4)c[nH]3)Cc3c2[nH]c2ccccc32)oc1=O (single isomer, unassigned) [Example 9]",4.2
6,"Cn1nc(C2(c3ccccc3)NC(c3nc(-c4ccc(F)cn4)c[nH]3)Cc3c2[nH]c2ccccc32)oc1=O (single isomer, unassigned) [Example 12]",1.2
7,"Cn1nc(C2(c3ccc(C#N)cc3)NC(c3nc(-c4ccc(F)cc4)c[nH]3)Cc3c2[nH]c2ccccc32)oc1=O (single isomer, unassigned) [Example 14]",1.2
8,"Cn1nc(C2(c3ccc(C#N)cc3)NC(c3nc(-c4ccc(F)cc4)c[nH]3)Cc3c2[nH]c2ccccc32)oc1=O (single isomer, unassigned) [Example 15]",2
9,"Cn1cc(C2(c3nn(C)c(=O)o3)N[C@@H](c3nc(-c4ccc(F)cc4)c[nH]3)Cc3c2[nH]c2ccccc32)cn1 (single isomer, unassigned) [Example 23]",1.2
10,"CCOC(=O)Cn1nc(C2(c3cnn(CC)c3)N[C@@H](c3nc(-c4ccc(F)cn4)c[nH]3)Cc3c2[nH]c2ccccc32)oc1=O (single isomer, unassigned) [Example 34]",0.9
11,"Cn1cc(C2(c3nnc(N)o3)N[C@@H](c3nc(-c4ccc(F)cc4)c[nH]3)Cc3c2[nH]c2ccccc32)cn1 (single isomer, unassigned) [Example 52]",13.3

# Other lines, results leading:
row,Ki [nM],Compound
1,0.8,"Cn1nc(C2(c3ccccc3)N[C@@H](c3nc(-c4ccc(F)cc4)c[nH]3)Cc3c2[nH]c2ccccc32)oc1=O (single isomer, unassigned) [Example 1]"
2,23.7,"CCn1nc(C2(c3noc(C)n3)N[C@@H](c3nc(-c4ccc(F)cn4)c[nH]3)Cc3c2[nH]c2ccccc32)oc1=O (single isomer, unassigned) [Example 8]"
3,52.2,"Cn1nc(C2(c3ccccc3)NC(c3nc(-c4ccc(F)cn4)c[nH]3)Cc3c2[nH]c2ccccc32)oc1=O (single isomer, unassigned) [Example 11]"
4,0.9,CSc1nnc(C2(c3cnn(C)c3)N[C@@H](c3nc(-c4ccc(F)cc4)c[nH]3)Cc3c2[nH]c2ccccc32)o1 (some centres unmarked) [Example 58]

# Molecular target: T1, SSTR3
# Experiment: SSTR3 functional antagonist assay: cAMP production with FSK + SS-14 in SSTR3 stable CHO cells
# Type: cell-based, human or mouse
# Design: […]
# Conditions: […] FSK + 100 nM SS-14
# Method: The effects of compounds that bind to human and murine SSTR3 with various affinities on the functional activity of the receptor were assessed by measuring cAMP production in the presence of Forskolin (FSK) along or FSK plus SS-14 in SSTR3 expressing CHO cells. FSK acts to induce cAMP production in these cells by activating adenylate cyclases, whereas SS-14 suppresses cAMP production in the SSTR3 stable cells by binding to SSTR3 and the subsequent inhibition of adenylate cyclases via an alpha subunit of GTP-binding protein (Gαi).
# The amount of cAMP produced during the incubation was also quantified with the Lance cAMP assay. […] The % Inhibition of each compound was calculated using the following formula:
# % Inhibition=[1−(unknown cAMP/FSK+SS-14 cAMP)]×100
row,Compound,EC50 [nM]
1,Oc1nnc(C2(c3ccccc3)N[C@@H](c3nc(-c4ccc(F)cc4)c[nH]3)Cc3c2[nH]c2ccccc32)o1 (mixture of isomers) [Example 10],10.7
2,N#Cc1ccc(C2(c3nnc(O)o3)N[C@@H](c3nc(-c4ccc(F)cc4)c[nH]3)Cc3c2[nH]c2ccccc32)cc1 (mixture of isomers) [Example 13],18.9
3,CCn1cc(C2(c3nn(C)c(=O)o3)N[C@@H](c3nc(-c4ccc(F)cc4)c[nH]3)Cc3c2[nH]c2ccccc32)cn1 (mixture of isomers) [Example 36],1.9
4,Cc1nc(C2(c3nnc(O)o3)NC(c3nc(-c4ccc(F)cc4)c[nH]3)Cc3c2[nH]c2ccccc32)no1 (mixture of isomers) [Example 38],24.6
5,CSc1nnc(C2(c3cnn(C)c3)NC(c3nc(-c4ccc(F)cn4)c[nH]3)Cc3c2[nH]c2ccccc32)o1 (mixture of isomers) [Example 57],0.8
6,"Cn1nc(C2(c3ccccc3)N[C@@H](c3nc(-c4ccc(F)cc4)c[nH]3)Cc3c2[nH]c2ccccc32)oc1=O (single isomer, unassigned) [Example 2]",29.1
7,"CCn1nc(C2(c3noc(C)n3)N[C@@H](c3nc(-c4ccc(F)cn4)c[nH]3)Cc3c2[nH]c2ccccc32)oc1=O (single isomer, unassigned) [Example 9]",2.6
8,"Cn1nc(C2(c3ccccc3)NC(c3nc(-c4ccc(F)cn4)c[nH]3)Cc3c2[nH]c2ccccc32)oc1=O (single isomer, unassigned) [Example 12]",5.9
9,"Cn1nc(C2(c3ccc(C#N)cc3)NC(c3nc(-c4ccc(F)cc4)c[nH]3)Cc3c2[nH]c2ccccc32)oc1=O (single isomer, unassigned) [Example 14]",5.4
10,"Cn1nc(C2(c3ccc(C#N)cc3)NC(c3nc(-c4ccc(F)cc4)c[nH]3)Cc3c2[nH]c2ccccc32)oc1=O (single isomer, unassigned) [Example 15]",30.5
11,"CCn1nc(C2(c3ccc(C#N)cc3)N[C@@H](c3nc(-c4ccc(F)cn4)c[nH]3)Cc3c2[nH]c2ccccc32)oc1=O (single isomer, unassigned) [Example 16]",11
12,"Cn1cc(C2(c3nnc(O)o3)N[C@@H](c3nc(-c4ccc(F)cc4)c[nH]3)Cc3c2[nH]c2ccccc32)cn1 (single isomer, unassigned) [Example 19]",47.5
13,"Cn1cc(C2(c3nn(C)c(=O)o3)N[C@@H](c3nc(-c4ccc(F)cc4)c[nH]3)Cc3c2[nH]c2ccccc32)cn1 (single isomer, unassigned) [Example 22]",6.1
14,"Cn1cc(C2(c3nn(C)c(=O)o3)N[C@@H](c3nc(-c4ccc(F)cc4)c[nH]3)Cc3c2[nH]c2ccccc32)cn1 (single isomer, unassigned) [Example 23]",2.3
15,"CCOC(=O)Cn1nc(C2(c3cnn(CC)c3)N[C@@H](c3nc(-c4ccc(F)cn4)c[nH]3)Cc3c2[nH]c2ccccc32)oc1=O (single isomer, unassigned) [Example 34]",0.5
16,"Oc1nnc(C2(c3cnn(C4CC4)c3)N[C@@H](c3nc(-c4ccc(F)cn4)c[nH]3)Cc3c2[nH]c2ccccc32)o1 (single isomer, unassigned) [Example 37]",0.6
17,"CCn1nc(C2(c3noc(COC)n3)N[C@@H](c3nc(-c4ccc(F)cn4)c[nH]3)Cc3c2[nH]c2ccccc32)oc1=O (single isomer, unassigned) [Example 41]",19
18,"COCc1nc(C2(c3nn(C)c(=O)o3)N[C@@H](c3nc(-c4ccc(F)cn4)c[nH]3)Cc3c2[nH]c2ccccc32)no1 (single isomer, unassigned) [Example 42]",3.2
19,"CCn1nnc(C2(c3nn(C)c(=O)o3)N[C@@H](c3nc(-c4ccc(F)cn4)c[nH]3)Cc3c2[nH]c2ccccc32)n1 (single isomer, unassigned) [Example 46]",21.4
20,"Cn1cc(C2(c3nnc(N)o3)N[C@@H](c3nc(-c4ccc(F)cc4)c[nH]3)Cc3c2[nH]c2ccccc32)cn1 (single isomer, unassigned) [Example 52]",8

# Continued, values first:
row,EC50 [nM],Compound
1,1.8,CCn1cc(C2(c3nnc(O)o3)NC(c3nc(-c4ccc(F)cc4)c[nH]3)Cc3c2[nH]c2ccccc32)cn1 (mixture of isomers) [Example 35]
2,17.8,Cc1nc(C2(c3nnc(N)o3)NC(c3nc(-c4ccc(F)cc4)c[nH]3)Cc3c2[nH]c2ccccc32)no1 (mixture of isomers) [Example 56]
3,3.8,"Cn1nc(C2(c3ccccc3)N[C@@H](c3nc(-c4ccc(F)cc4)c[nH]3)Cc3c2[nH]c2ccccc32)oc1=O (single isomer, unassigned) [Example 1]"
4,18,"CCn1nc(C2(c3noc(C)n3)N[C@@H](c3nc(-c4ccc(F)cn4)c[nH]3)Cc3c2[nH]c2ccccc32)oc1=O (single isomer, unassigned) [Example 8]"
5,74.1,"Cn1nc(C2(c3ccccc3)NC(c3nc(-c4ccc(F)cn4)c[nH]3)Cc3c2[nH]c2ccccc32)oc1=O (single isomer, unassigned) [Example 11]"
6,25.6,"CCn1nc(C2(c3ccc(C#N)cc3)N[C@@H](c3nc(-c4ccc(F)cn4)c[nH]3)Cc3c2[nH]c2ccccc32)oc1=O (single isomer, unassigned) [Example 17]"
7,1.1,"Cn1cc(C2(c3nnc(O)o3)N[C@@H](c3nc(-c4ccc(F)cc4)c[nH]3)Cc3c2[nH]c2ccccc32)cn1 (single isomer, unassigned) [Example 18]"
8,680,"Cn1cc(C2(c3nnc(O)o3)N[C@@H](c3nc(-c4ccc(F)cn4)c[nH]3)Cc3c2[nH]c2ccccc32)cn1 (single isomer, unassigned) [Example 20]"
9,12.5,"COCc1nc(C2(c3nnc(O)o3)N[C@@H](c3nc(-c4ccc(F)cn4)c[nH]3)Cc3c2[nH]c2ccccc32)no1 (single isomer, unassigned) [Example 39]"
10,3,"CCn1nc(C2(c3noc(COC)n3)N[C@@H](c3nc(-c4ccc(F)cn4)c[nH]3)Cc3c2[nH]c2ccccc32)oc1=O (single isomer, unassigned) [Example 40]"
11,1070,"Cn1nnc(C2(c3nnc(O)o3)N[C@@H](c3nc(-c4ccc(F)cn4)c[nH]3)Cc3c2[nH]c2ccccc32)n1 (single isomer, unassigned) [Example 43]"
12,2000,"CCn1nnc(C2(c3nnc(O)o3)N[C@@H](c3nc(-c4ccc(F)cn4)c[nH]3)Cc3c2[nH]c2ccccc32)n1 (single isomer, unassigned) [Example 44]"
13,32.6,"CCn1nnc(C2(c3nnc(O)o3)N[C@@H](c3nc(-c4ccc(F)cn4)c[nH]3)Cc3c2[nH]c2ccccc32)n1 (single isomer, unassigned) [Example 45]"
14,74.4,"CCn1nnc(C2(c3nn(C)c(=O)o3)N[C@@H](c3nc(-c4ccc(F)cn4)c[nH]3)Cc3c2[nH]c2ccccc32)n1 (single isomer, unassigned) [Example 47]"
15,63.4,"CCn1nc(C2(c3nnn(C)n3)N[C@@H](c3nc(-c4ccc(F)cn4)c[nH]3)Cc3c2[nH]c2ccccc32)oc1=O (single isomer, unassigned) [Example 48]"
16,0.2,"Cn1cc(C2(c3nnc(N)o3)N[C@@H](c3nc(-c4ccc(F)cc4)c[nH]3)Cc3c2[nH]c2ccccc32)cn1 (single isomer, unassigned) [Example 53]"
17,0.8,"Cn1nc(C2(c3cnn(C4CC4)c3)N[C@@H](c3nc(-c4ccc(F)cn4)c[nH]3)Cc3c2[nH]c2ccccc32)oc1=O (single isomer, unassigned) [Example 59]"
18,1.9,CSc1nnc(C2(c3cnn(C)c3)N[C@@H](c3nc(-c4ccc(F)cc4)c[nH]3)Cc3c2[nH]c2ccccc32)o1 (some centres unmarked) [Example 58]
